Assay results from ChEMBL document CHEMBL1145177, “Further naphthylcombretastatins. An investigation on the role of the naphthalene moiety” (J Med Chem, 2005).

Key:
HL-60 = assay: Inhibitory concentration value against human colon carcinoma H-116 or human cancer HL-60 tumor cell line; assay type: functional, cell-based
Tubulin beta chain = Tubulin beta chain (Bos taurus, UniProt Q6B856); assay: In vitro inhibitory concentration value against bovine brain tubulin polymerization
HT-29 = assay: Inhibitory concentration value against human colon adenocarcinoma HT-29 tumor cell line; assay type: functional, cell-based
A549 = assay: Inhibitory concentration value against human A-549 tumor cell line; assay type: functional, cell-based
SK-MEL-28 = assay: Inhibitory concentration value against human MEL-28 tumor cell line; assay type: functional, cell-based
HCT-116 = assay: Inhibitory concentration value against human colon carcinoma H-116 tumor cell line; assay type: functional, cell-based
P388 = assay: Inhibitory concentration value against murine P-388 tumor cell line; assay type: functional, cell-based; details: Mus musculus
[1] = Inhibitory concentration value against human MEL-28 or human cancer HeLa tumor cell line; assay type: functional, cell-based

Tubulin beta chain, sequence (Q6B856 whole entry): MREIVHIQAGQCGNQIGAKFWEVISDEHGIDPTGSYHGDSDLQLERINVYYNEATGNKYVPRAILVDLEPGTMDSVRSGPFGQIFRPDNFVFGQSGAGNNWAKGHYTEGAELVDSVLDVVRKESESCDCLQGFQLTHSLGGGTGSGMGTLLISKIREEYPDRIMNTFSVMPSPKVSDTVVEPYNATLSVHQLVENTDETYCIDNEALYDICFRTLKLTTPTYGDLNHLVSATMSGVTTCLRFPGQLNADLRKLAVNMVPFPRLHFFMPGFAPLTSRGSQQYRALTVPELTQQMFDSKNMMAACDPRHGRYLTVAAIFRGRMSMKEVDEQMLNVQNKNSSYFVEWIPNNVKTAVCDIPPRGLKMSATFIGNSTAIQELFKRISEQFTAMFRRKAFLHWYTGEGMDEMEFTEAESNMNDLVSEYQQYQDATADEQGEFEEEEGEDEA

SMILES: COc1ccc(/C=C\c2cc(OC)c3ccccc3c2)cc1O
- IC50 (HL-60): 3620 nM
- IC50 (Tubulin beta chain): 16 µM
- IC50 (HT-29): 3620 nM
- IC50 (A549): 40 nM
- IC50 (SK-MEL-28): 40 nM
- IC50 (HCT-116): 40 nM
- IC50 (P388): 40 nM
- IC50 [1]: 40 nM

SMILES: COc1cc(/C=C\c2ccc3c(ccn3C)c2)cc(OC)c1OC
- IC50 (HL-60): 330 nM
- IC50 (Tubulin beta chain): 2 µM
- IC50 [1]: 250 nM

SMILES: COc1cc(/C=C/c2ccc3ccccc3c2)cc(N)c1OC
- IC50 (HL-60): 3150 nM
- IC50 (Tubulin beta chain): > 40 µM
- IC50 (HT-29): 6000 nM
- IC50 (A549): 2150 nM
- IC50 [1]: 460 nM

SMILES: COc1cccc(/C=C\c2ccc3ccccc3c2)c1
- IC50 (Tubulin beta chain): > 30 µM
- IC50 (HT-29): 1920 nM
- IC50 (A549): 1920 nM
- IC50 (SK-MEL-28): 1920 nM
- IC50 (HCT-116): 1920 nM
- IC50 (P388): 1920 nM

SMILES: COc1ccc(/C=C/c2cc(OC)c3ccccc3c2)cc1O
- IC50 (HL-60): 3620 nM
- IC50 (HT-29): 3620 nM
- IC50 (A549): 3620 nM
- IC50 (SK-MEL-28): 3620 nM
- IC50 (HCT-116): 3620 nM
- IC50 (P388): 3620 nM
- IC50 [1]: 3620 nM

SMILES: COc1cc(/C=C/c2ccc3[nH]ccc3c2)cc(OC)c1OC
- IC50 (HL-60): 380 nM
- IC50 (Tubulin beta chain): > 30 µM
- IC50 (HT-29): 280 nM
- IC50 (A549): 470 nM
- IC50 [1]: 250 nM

SMILES: COc1cc(/C=C\c2ccc3ccccc3c2)ccc1F
- IC50 (Tubulin beta chain): > 30 µM
- IC50 (HT-29): 450 nM
- IC50 (A549): 450 nM
- IC50 (SK-MEL-28): 450 nM
- IC50 (HCT-116): 450 nM
- IC50 (P388): 450 nM

SMILES: CN(C)c1c([N+](=O)[O-])cc(/C=C/c2ccc3ccccc3c2)cc1[N+](=O)[O-]
- IC50 (HL-60): > 5000 nM
- IC50 (HT-29): > 5000 nM
- IC50 (A549): > 5000 nM
- IC50 (P388): > 5000 nM
- IC50 [1]: > 5000 nM

SMILES: COc1cc(/C=C\c2ccc3ccccc3c2)cc([N+](=O)[O-])c1OC
- IC50 (HL-60): 340 nM
- IC50 (Tubulin beta chain): 13 µM
- IC50 (HT-29): 420 nM
- IC50 (A549): 590 nM
- IC50 [1]: 110 nM

SMILES: COc1cc(/C=C\c2ccc(N(C)C)c(N)c2)cc(OC)c1OC
- IC50 (HL-60): 3 nM
- IC50 (Tubulin beta chain): > 30 µM
- IC50 (HT-29): 4 nM
- IC50 (A549): 4 nM
- IC50 [1]: 3 nM

SMILES: COc1cc(/C=C/c2ccc3ccccc3c2)cc([N+](=O)[O-])c1OC
- IC50 (HL-60): > 10000 nM
- IC50 (Tubulin beta chain): > 40 µM
- IC50 (HT-29): > 10000 nM
- IC50 (A549): > 10000 nM
- IC50 [1]: 3200 nM

SMILES: COc1cc(/C=C\c2ccc3c(c2)c2ccccc2n3C)cc(OC)c1OC
- IC50 (HL-60): > 10000 nM
- IC50 (Tubulin beta chain): 6 µM
- IC50 (HT-29): > 10000 nM
- IC50 (A549): > 10000 nM
- IC50 [1]: 3100 nM

SMILES: COc1cc(/C=C/c2ccc3c(c2)c2ccccc2n3C)cc(OC)c1OC
- IC50 (HL-60): 340 nM
- IC50 (Tubulin beta chain): > 30 µM
- IC50 (HT-29): 450 nM
- IC50 (A549): 530 nM
- IC50 [1]: 330 nM

SMILES: COc1cc2ccc(CCc3ccc4ccccc4c3)cc2cc1O
- IC50 (HL-60): 3590 nM
- IC50 (HT-29): 3590 nM
- IC50 (A549): 3590 nM
- IC50 (SK-MEL-28): 3590 nM
- IC50 (HCT-116): 3590 nM
- IC50 (P388): 3590 nM
- IC50 [1]: 3590 nM

SMILES: COc1cc(/C=C\c2ccc3[nH]ccc3c2)cc(OC)c1OC
- IC50 (HL-60): 35 nM
- IC50 (Tubulin beta chain): 25 µM
- IC50 (HT-29): 35 nM
- IC50 (A549): 390 nM
- IC50 [1]: 34 nM

SMILES: COc1cc(/C=C/c2ccc3c(ccn3C)c2)cc(OC)c1OC
- IC50 (HL-60): 27 nM
- IC50 (Tubulin beta chain): 30 µM
- IC50 [1]: 24 nM

SMILES: COc1cc(CCc2ccc3ccccc3c2)cc(OC)c1OC
- IC50 (HL-60): 310 nM
- IC50 (HT-29): 310 nM
- IC50 (A549): 310 nM
- IC50 (SK-MEL-28): 310 nM
- IC50 (HCT-116): 310 nM
- IC50 (P388): 310 nM
- IC50 [1]: 310 nM

SMILES: COc1cc(/C=C/c2ccc3ccccc3c2)cc(OC)c1OC
- IC50 (HL-60): 390 nM
- IC50 (HT-29): 390 nM
- IC50 (A549): 390 nM
- IC50 (SK-MEL-28): 390 nM
- IC50 (HCT-116): 390 nM
- IC50 (P388): 390 nM
- IC50 [1]: 390 nM

SMILES: COc1ccc(/C=C\c2ccc3ccccc3c2)cc1O
- IC50 (HL-60): 16 nM
- IC50 (Tubulin beta chain): 3 µM
- IC50 (HT-29): 32 nM
- IC50 (A549): 3 nM
- IC50 (SK-MEL-28): 3 nM
- IC50 (HCT-116): 16 nM
- IC50 (P388): 3 nM
- IC50 [1]: 3 nM

SMILES: COc1cc(/C=C\c2ccc3ccccc3c2)cc(OC)c1OC [NAPHTHYLCOMBRETASTATIN]
- IC50 (HL-60): > 5000 nM
- IC50 (Tubulin beta chain): 10 µM
- IC50 (SK-MEL-28): 20 nM
- IC50 (HCT-116): 20 nM
- IC50 (P388): 20 nM
- IC50 [1]: 20 nM
